The source of these data is paper PMC12036557, “Functional Imaging of CYP3A4 at Multiple Dimensions Using an AI‐Driven High Performance Fluorogenic Substrate” (Small (Weinheim an Der Bergstrasse, Germany), 2025).

Series [1] deals with T1, CYP3A4 (Homo sapiens, UniProt P08684). Briefly: NFa-based screening and characterizing of hCYP3A4 inhibitors in HLMs. Conditions: human, human liver microsomes, pH 7.4, probe NFa (4-hydroxylation to 4-HNFa).
The next series addresses hCYP3A4 in HLMs (Homo sapiens, UniProt P08684). The description is as above.
Series [2] deals with T1, CYP3A4. Briefly: Inhibitory effect of D13 in CHO-3A4 stably transfected cell line. It is filed as cell-based. Conditions: CHO-3A4 cells, D13 1 h, NFa 10 μM 30 min; read-out: inhibitory effect (IC50) in living cells. Details: expressed in transfected cells; host or cells: CHO-3A4 stably transfected cell line.
Series [3] deals with T1, CYP3A4. Briefly: NFa-based inhibition assay in recombinant hCYP3A4. The format is biochemical. Details: purchased Cypex. Conditions: read-out: IC50 against CYP3A4‐catalyzed NFa 4‐hydroxylation.
For series [4], the system named is CYP3A4. Description: In vivo inhibitory effect against CYP3A4 (pharmacokinetics of NFa with inhibitor). Details: species or system C57 mice. Particulars: inhibitor 50 mg/kg i.g., NFa 20 mg/kg i.g., mice.
Series [5] concerns CYP3A4. Briefly: Liver organ imaging in the presence of CYP3A4 inhibitor (ex vivo). Particulars: mouse, excised whole liver tissue (ex vivo), probe NFa (50 µM); whole mice liver, inhibitor 1 h, NFa 50 µM 30 min; read-out: IC50 (4‐HNFa levels in liver tissue).
Series [6] concerns CYP3A4. Details: method as in PMID 22971642. Particulars: RTV 50 mg kg^−1, mice; cited from earlier work.

T1 sequence (P08684 whole entry): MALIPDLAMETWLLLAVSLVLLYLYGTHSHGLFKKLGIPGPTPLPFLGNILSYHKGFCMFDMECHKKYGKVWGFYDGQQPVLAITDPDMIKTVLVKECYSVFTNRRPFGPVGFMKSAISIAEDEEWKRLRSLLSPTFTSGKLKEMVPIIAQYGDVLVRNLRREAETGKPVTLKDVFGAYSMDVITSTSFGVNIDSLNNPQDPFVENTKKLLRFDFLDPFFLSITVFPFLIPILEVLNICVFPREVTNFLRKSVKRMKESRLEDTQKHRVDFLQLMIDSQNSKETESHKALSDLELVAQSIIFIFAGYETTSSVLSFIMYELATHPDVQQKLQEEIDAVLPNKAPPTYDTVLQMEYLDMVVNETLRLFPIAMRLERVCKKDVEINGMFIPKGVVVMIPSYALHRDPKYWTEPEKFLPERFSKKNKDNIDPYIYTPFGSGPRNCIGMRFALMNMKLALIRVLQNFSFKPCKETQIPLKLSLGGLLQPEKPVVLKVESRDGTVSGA
Chain of hCYP3A4 in HLMs (P08684 whole entry): as above

`O=C(/C=C/c1ccc2cnccc2c1)c1ccc(N2CCCC2)cc1` [D13, (E)-3-(isoquinolin-6-yl)-1-(4-(pyrrolidin-1-yl)phenyl)prop-2-en-1-one] returned an activity at 30 min, 1 µM at CYP3A4 [1] of 4.08%. For the same compound, at hCYP3A4 in HLMs, the IC50 was found to be 13.6 nM. At hCYP3A4 in HLMs (inhibitor 1 μM, HLMs, NFa as fluorogenic substrate), the Residual activity result was “completely inhibited”. Further, at CYP3A4 [2], the 50% inhibitory concentration (IC50) amounted to 25.4 nM. For the same compound, the IC50 on CYP3A4 [3] came out at 10.9 nM. In the series on CYP3A4 [4], the “Ratio of AUC(0‐inf) of NFa (inhibitor group / control group)” value is given as 7.22, the “Ratio of C max of NFa (inhibitor group / control group)” value is listed as 2.37, the “Ratio of T max of NFa (inhibitor group / control group)” value is on record as 0.56 and the “Ratio of t 1/2 of NFa (inhibitor group / control group)” value worked out at 2.87. Besides, the IC50 in the series with CYP3A4 [5] was found to be 270 ± 50 nM.
In the case of `CC(C)c1nc(CN(C)C(=O)N[C@H](C(=O)N[C@@H](Cc2ccccc2)C[C@H](O)[C@H](Cc2ccccc2)NC(=O)OCc2cncs2)C(C)C)cs1` [RTV, Ritonavir], the “increase of AUCinf of midazolam (oral) when co‐administered with RTV” value in the series on CYP3A4 [6] was “five‐fold”.
